Melting point and inhibition data for 45 molecules are collected here from patent publication US20020169326A1, “Esters and amides as PLA2 inhibitors” (FUJISAWA PHARMACEUTICAL COMPANY, LTD., priority 1995, published 2002).

Molecules are shown by their SMILES.

Test system in the first series: not given
Experiment: not given
Conditions: not given
`CCCN(C(=O)[C@H](CCC(=O)O)NC(=O)c1cn(Cc2ccccc2Cl)c2ccccc12)[C@H](CC(N)=O)Cc1ccc2ccccc2c1` returned a melting point of 85 to 92 °C.
`CCCCc1ccc(C[C@@H](CC(N)=O)N(CCCC)C(=O)[C@H](CCCC(=O)O)NC(=O)c2cn(Cc3ccccc3Cl)c3ccccc23)cc1` showed a melting point of 166 to 168 °C.
Take `CCCCc1ccc(C[C@@H](CC(N)=O)N(CCCC)C(=O)[C@H](CCCC(=O)O)NC(=O)c2cn(Cc3ccccc3)c3ccccc23)cc1`: the melting point was in the range of 77 to 82 °C.
In turn, `CCCCc1ccc(C[C@@H](CC(N)=O)N(CCC)C(=O)[C@H](CCCC(=O)O)NC(=O)c2cn(Cc3ccccc3Cl)c3ccccc23)cc1` registered a melting point of 83 to 87 °C.
`CCCCc1ccc(C[C@@H](CC(N)=O)N(CCC)C(=O)[C@H](CCCC(=O)O)NC(=O)c2cn(Cc3ccccc3)c3ccccc23)cc1` came in with a melting point of 82 to 88 °C.
As to `CCCN(C(=O)[C@H](CCCC(=O)O)NC(=O)c1cn(Cc2ccccc2Cl)c2ccccc12)[C@H](CC(N)=O)Cc1ccc(C)cc1`, the melting point is 79 to 96 °C.
On the same count and under the same terms, next, `CCCN(C(=O)[C@H](CCCC(=O)O)NC(=O)c1cn(Cc2ccccc2)c2ccccc12)[C@H](CC(N)=O)Cc1ccc(C)cc1`: 83 to 92 °C; `CCCCN(C(=O)[C@H](CCCC(=O)O)NC(=O)c1cn(Cc2ccccc2Cl)c2ccccc12)[C@H](CC(N)=O)Cc1ccc2ccccc2c1`: 104 to 110 °C; `CCCCN(C(=O)[C@H](CCCC(=O)O)NC(=O)c1cn(Cc2ccccc2)c2ccccc12)[C@H](CC(N)=O)Cc1ccc2ccccc2c1`: 90 to 96 °C.
The same measure, in the same setting: in the case of `CCN(C(=O)[C@H](CCCC(=O)O)NC(=O)c1cn(Cc2ccccc2Cl)c2ccccc12)[C@H](CC(N)=O)Cc1ccc2ccccc2c1` it was 110 to 114 °C; in that of `CCN(C(=O)[C@H](CCCC(=O)O)NC(=O)c1cn(Cc2cccc3ccccc23)c2ccccc12)[C@H](CC(N)=O)Cc1ccc2ccccc2c1`, 118 to 126 °C.
In the case of `CCN(C(=O)[C@H](CCCC(=O)O)NC(=O)c1cn(Cc2ccccc2)c2ccccc12)[C@H](CC(N)=O)Cc1ccc2ccccc2c1`, the melting point lay within 110 to 112 °C.
As to `CCCCCN(C(=O)[C@H](CCCC(=O)O)NC(=O)c1cn(Cc2ccccc2)c2ccccc12)[C@H](CC(N)=O)Cc1ccc2ccccc2c1`, the melting point lay within 89 to 93 °C.
The molecule `CCCCCN(C(=O)[C@H](CCCC(=O)O)NC(=O)c1cn(Cc2cccc3ccccc23)c2ccccc12)[C@H](CC(N)=O)Cc1ccc2ccccc2c1` came in with a melting point of 112 to 116 °C.
Molecule `CCCN(C(=O)[C@H](CCCC(=O)O)NC(=O)c1cn(Cc2cccc3ccccc23)c2ccccc12)[C@H](CC(N)=O)Cc1ccc2ccccc2c1` displayed a melting point of 123 to 126 °C.
As to `CCCN(C(=O)[C@H](CCCC(=O)O)NC(=O)c1cn(Cc2ccccc2)c2ccccc12)[C@H](CC(N)=O)Cc1ccc2ccccc2c1`, the melting point is 91 to 94 °C.
Still for that read-out and setting: next, `CCCCCCCCCCCCC[C@@H](CC(N)=O)N(Cc1ccccn1)C(=O)[C@H](CCCC(=O)O)NC(=O)c1ccc2ccccc2n1.Cl.Cl`: 74 to 81 °C; `CCCCCCCCCCCCC[C@@H](CC(N)=O)N(CCC)C(=O)[C@H](CCCC(=O)O)NC(=O)c1ccc2ccccc2n1.Cl`: 59 to 62 °C.
`CCCCCCCCC[C@@H](CC(N)=O)N(CCCCC)C(=O)[C@H](CCCC(=O)O)NC(=O)c1cn(Cc2ccccc2)c2ccccc12` had a melting point of 125 to 127 °C.
Turning to `CCCCCC[C@@H](CC(N)=O)N(CCCCC)C(=O)[C@H](CCCC(=O)O)NC(=O)c1cn(Cc2ccccc2)c2ccccc12`, the melting point is 127 to 129 °C.
On to `CCCCCC[C@@H](CC(N)=O)N(CCCC)C(=O)[C@H](CCCC(=O)O)NC(=O)c1cn(Cc2ccccc2)c2ccccc12`, for which the melting point lay within 124 to 127 °C.
Same read-out and setting: next, `CCCCCC[C@@H](CC(N)=O)N(CCCC)C(=O)[C@H](CCCC(=O)O)NC(=O)c1cn(Cc2ccccc2Cl)c2ccccc12`: 153 to 156 °C.
`CCCCCC[C@@H](CC(N)=O)N(CCC)C(=O)[C@H](CCCC(=O)O)NC(=O)c1cn(Cc2cccc(Cl)c2)c2ccccc12` gave a melting point of 106 to 109 °C.
`CCCCCC[C@@H](CC(N)=O)N(CCC)C(=O)[C@H](CCCC(=O)O)NC(=O)c1cn(Cc2cccc3ccccc23)c2ccccc12` came in with a melting point of 139 to 141 °C.
On the same count and under the same terms, next, `CCCCCC[C@@H](CC(N)=O)N(CCC)C(=O)[C@H](CCCC(=O)O)NC(=O)c1cn(Cc2ccccn2)c2ccccc12`: 78 to 95 °C.
In turn, `CCCCCC[C@@H](CC(N)=O)N(CCC)C(=O)[C@H](CCCC(=O)O)NC(=O)c1cn(Cc2ccccc2Cl)c2ccccc12` returned a melting point of 175 to 180 °C.
`CCCC[C@@H](CC(N)=O)N(CCC)C(=O)[C@H](CCCC(=O)O)NC(=O)c1cn(Cc2ccccc2Cl)c2ccccc12` registered a melting point of 95 to 98 °C.
Molecule `CCCC[C@@H](CC(N)=O)N(CCC)C(=O)[C@H](CCCC(=O)O)NC(=O)c1cn(Cc2cccc3ccccc23)c2ccccc12` returned a melting point of 98 to 116 °C.
The molecule `CCCN(C(=O)[C@H](CCCC(=O)O)NC(=O)c1cn(Cc2ccccn2)c2ccccc12)[C@H](CC(N)=O)Cc1ccc2cc(CC)ccc2c1` had a melting point of 110 to 116 °C.
Take `CCCN(C(=O)[C@H](CCCC(=O)O)NC(=O)c1cn(Cc2ccccc2)c2ccccc12)[C@H](CC(N)=O)Cc1ccc2cc(CC)ccc2c1`: the melting point is 105 to 116 °C.
`CCCCN(C(=O)[C@H](CCCC(=O)O)NC(=O)c1cn(Cc2ccccc2)c2ccccc12)[C@H](CC(N)=O)Cc1ccc2cc(CC)ccc2c1`: the melting point was 100 to 116 °C.
On the same count and under the same terms, in the case of `CCCCN(C(=O)[C@H](CCCC(=O)O)NC(=O)c1cn(Cc2ccccc2Cl)c2ccccc12)[C@H](CC(N)=O)Cc1ccc2cc(CC)ccc2c1` it was 100 to 116 °C; in that of `CCCCCCCCC[C@@H](CC(N)=O)N(CCC)C(=O)[C@H](CCCC(=O)O)NC(=O)c1cn(Cc2ccccc2)c2ccccc12`, 155 to 160 °C; in that of `CCCCCCCCC[C@@H](CC(N)=O)N(CCC)C(=O)[C@H](CCCC(=O)O)NC(=O)c1cn(Cc2ccccc2Cl)c2ccccc12`, 145 to 150 °C.
`CCCCCCCc1ccc(C[C@@H](CC(N)=O)N(CCCC)C(=O)[C@H](CCCC(=O)O)NC(=O)c2cn(Cc3ccccc3Cl)c3ccccc23)cc1` had a melting point of 79 to 81 °C.
Same read-out and setting: next, `CCCCCC[C@@H](CC(N)=O)N(CC)C(=O)[C@H](CCCC(=O)O)NC(=O)c1cn(Cc2ccccc2Cl)c2ccccc12`: 180 to 183 °C; `CCCCCC[C@@H](CC(N)=O)N(CC)C(=O)[C@H](CCCC(=O)O)NC(=O)c1cn(Cc2ccccc2)c2ccccc12`: 80 to 85 °C.
Same read-out and setting: in the case of `CCCC[C@@H](CC(N)=O)N(CCCC)C(=O)[C@H](CCCC(=O)O)NC(=O)c1cn(Cc2ccccc2Cl)c2ccccc12` it was 105 to 110 °C; in that of `CCCC[C@@H](CC(N)=O)N(CCCC)C(=O)[C@H](CCCC(=O)O)NC(=O)c1cn(Cc2cccc3ccccc23)c2ccccc12`, 105 to 113 °C; in that of `CCCCCC[C@@H](CC(N)=O)N(CCC)C(=O)[C@H](CCCC(=O)O)NC(=O)c1cn(Cc2ccccc2)c2ccccc12`, 147 to 157 °C.
`CC(C)(C)OC(=O)N[C@@H](CCCC(=O)OCc1ccccc1)C(=O)O[C@H](CC(N)=O)Cc1ccc(-c2ccccc2)cc1` [Example 40, (3S)-3-[(2S)-5-Benzyloxycarbonyl-2-(tert-butoxycarbonylamino)pentanoyl]oxy-4-(4-biphenylyl)butanamide] had a melting point of 94 to 98 °C.
Molecule `CCCCCCCCCCCCC[C@@H](CC(N)=O)N(CC(C)C)C(=O)[C@H](CCCC(=O)O)NC(=O)c1ccc2ccccc2n1` [Example 149, (3S)-3-[N-Isobutyl-{(2S)-5-carboxy-2-(2-quinolylcarbonylamino)pentanoyl}amino]hexadecanamide] gave a melting point of 65 to 66 °C.
For the molecule `Cc1ccc(Cn2c(C(=O)N[C@@H](CCCC(=O)O)C(=O)O[C@H](CC(N)=O)Cc3ccc4ccccc4c3)cc3ccccc32)cc1` [Example 165, (3S)-3-[(2S)-5-Carboxy-2-[{1-(4-methylbenzyl)indol-2-ylcarbonyl}amino]pentanoyl]oxy-4-(2-naphthyl)butanamide], the melting point is 86 to 90 °C.
Consider `CN(CCC(N)=O)C(=O)[C@H](CCCC(=O)O)NC(=O)c1cc2ccccc2cc1Cc1ccccc1` [Example 180, 3-[N-Methyl-{(2S)-2-(3-benzylnaphthalen-2-ylcarbonyl)amino-5-carboxypentanoyl}amino]propanamide], for which the melting point was 147 to 157 °C.

In another series the target is T1, human recombinant PLA2 group II enzyme (Homo sapiens, UniProt P14555).
T1 sequence (P14555 21-144): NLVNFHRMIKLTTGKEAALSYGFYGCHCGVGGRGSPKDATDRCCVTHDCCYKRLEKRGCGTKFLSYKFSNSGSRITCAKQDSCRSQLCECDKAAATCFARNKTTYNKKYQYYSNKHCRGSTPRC
Description: Test on the inhibitory effect against phospholipase A2 (PLA2), fluorescent phospholipid substrate. It counts as biochemical. The note with it: dose 1 × 10^−6 M; 10-pyrene PA-monomethyl ester substrate, room temperature, 10 minutes; read-out: Percent inhibition: inhibition (%). As to the method:
Test on the inhibitory effect against phospholipase A2 (PLA2)
PLA2 activity was assayed with a fluorescent phospholipid analogue [1-palmitoyl-2-(10-pyrenyldecanoyl)-sn-glycero-3-monomethylphosphatidic acid(10-pyrene PA-monomethyl ester)] as a substrate, according to Radvanyi et al. (1989) with several modifications. Briefly, the reaction medium was prepared by sequential addition of 1160 μl of 50 mM Tris-HCl (pH 7.4) buffer containing 100 mM NaCl and 1 mM EDTA, 10 μl of 120 μM 10-pyrene PA-monomethyl ester in ethanol, 10 μl of drug sample in methanol and 10 μl of 1.2 μg/ml human recombinant PLA2 group II enzyme. The enzymatic reaction was then initiated with 10 μl of 0.84 M CaCl2. Following incubation at room temperature for 10 minutes, the reaction was terminated by addition of 25 μl of 1 M EDTA and 10 μl of 10 mg/ml β-cyclodextrin. Fluorescence measurements were carried out with a JASCO Corporation FP-777 spectrofluorometer. Excitation and emission wavelengths were 345 nm and 380 nm, respectively. All data are the average of at least duplicate determinations corrected for the spontaneous fluorescence of the reaction medium. Data were expressed as percent inhibition.
F. Radvanyi, L. Jordan, F. Russo-Marie and C. Bon: A sensitive and continuous fluorometric assay for phospholipase A2 using pyrene-labeled phospholipids in the presence of serum albumin. […]
As for `NC(=O)C[C@H](Cc1ccc2ccccc2c1)OC(=O)[C@H](CCCC(=O)O)NC(=O)c1cc2ccccc2cc1Cc1ccccc1` [Example 24, (3S)-3-[(2S)-2-(3-Benzylnaphthalen-2-ylcarbonylamino)-5-carboxypentanoyl]oxy-4-(2-naphthyl)butanamide], the inhibition at 1 µM came out at 100%.

Usually melting point stands for the temperature, or range, at which the solid turns liquid. As a reminder, the inhibition is the drop in the measured response relative to a control, in per cent.
